Experimental data published in the supplement of paper PMC10307832.

How the values were obtained:
Experiment in all cases: relative viability (nuclei count vs DMSO), 5 days (fraction); higher = more cells survive
[1] = compound: C1=CC2=C(C=CC(=C2)C=C3C(=O)NC(=NCC4=CC=CS4)S3)N=C1 [RO-3306] + COc1cc2c(Oc3ccc(NC(=O)C4(C(=O)Nc5ccc(F)cc5)CC4)cc3F)ccnc2cc1OCCCN1CCOCC1 [Foretinib] (partner 0.25 µM)
Procedure, shortened: (§1)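 Relative viability equals treated-well nuclei counts divided by vehicle-well nuclei counts. Counts came from 4× images of lung cancer cell lines grown in 1536-well plates for 5 days after pin-tool dosing on the day after seeding. Dosing used one drug alone or a fixed anchor-drug dose plus five library-drug doses (not always all listed) in √10 steps, and values are medians of duplicate plates.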

[2] = compound: C1=CC2=C(C=CC(=C2)C=C3C(=O)NC(=NCC4=CC=CS4)S3)N=C1 [RO-3306] + O=C(c1cc(Cc2n[nH]c(=O)c3ccccc23)ccc1F)N1CCN(C(=O)C2CC2)CC1 [Olaparib] (partner 8 µM)
Procedure, shortened: as §1

[3] = compound: O=S(=O)(c1ccccc1)N(CC(F)(F)F)c1ccc(C(O)(C(F)(F)F)C(F)(F)F)cc1 + Cc1cc(Nc2cc(N3CCN(C)CC3)nc(Sc3ccc(NC(=O)C4CC4)cc3)n2)n[nH]1 [Tozasertib] (partner 0.1 µM)
Procedure, shortened: as §1

[4] = compound: O=S(=O)(c1ccccc1)N(CC(F)(F)F)c1ccc(C(O)(C(F)(F)F)C(F)(F)F)cc1 + Cc1nc(NC(=O)N2CCC[C@H]2C(N)=O)sc1-c1ccnc(C(C)(C)C(F)(F)F)c1 [Alpelisib] (partner 2 µM)
Procedure, shortened: as §1

[5] = compound: O=S(=O)(c1ccccc1)N(CC(F)(F)F)c1ccc(C(O)(C(F)(F)F)C(F)(F)F)cc1 + O=C(c1cc(Cc2n[nH]c(=O)c3ccccc23)ccc1F)N1CCN(C(=O)C2CC2)CC1 [Olaparib] (partner 8 µM)
Procedure, shortened: as §1

Cell Line	relative viability ([1]; first compound 0.01 µM)	relative viability ([1]; first compound 0.03162 µM)	relative viability ([1]; first compound 0.1 µM)	relative viability ([1]; first compound 0.3162 µM)	relative viability ([1]; first compound 1 µM)	relative viability ([2]; first compound 0.01 µM)	relative viability ([2]; first compound 0.03162 µM)	relative viability ([2]; first compound 0.1 µM)	relative viability ([2]; first compound 0.3162 µM)	relative viability ([2]; first compound 1 µM)	relative viability ([3]; first compound 0.8 µM)	relative viability ([3]; first compound 2.53 µM)	relative viability ([3]; first compound 8 µM)	relative viability ([4]; first compound 0.8 µM)	relative viability ([4]; first compound 2.53 µM)	relative viability ([4]; first compound 8 µM)	relative viability ([5]; first compound 2.53 µM)	relative viability ([5]; first compound 8 µM)	relative viability ([5]; first compound 0.8 µM)
NCI-H358	0.541	0.57	0.623	0.786	0.493	0.779	0.485	0.583	0.596	0.468	0.107	0.0905	0.0846	0.647	0.729	0.695	0.563	0.517	–
HOP-62	1.2	1.07	1.05	1.05	1.1	0.606	0.476	0.168	0.406	0.678	0.392	0.35	0.26	0.551	0.954	0.706	0.49	0.392	0.226
EKVX	0.805	0.748	0.841	0.741	0.744	1.03	0.821	0.846	0.895	0.704	0.405	0.344	0.325	0.892	0.803	0.955	0.757	0.661	0.836
NCI-H1666	0.936	0.891	0.905	1.04	0.935	0.749	0.749	0.693	0.685	0.729	0.627	0.62	0.545	0.776	0.868	0.892	0.683	0.679	0.757
NCI-H2170	0.929	0.925	0.98	1.11	0.985	0.658	0.589	0.631	0.546	0.509	0.784	0.616	0.629	0.961	0.804	0.798	0.563	0.609	0.666
201T	1.28	1.27	1.01	1.03	0.613	0.861	0.855	0.82	0.828	0.828	0.927	0.854	0.863	1	0.915	0.987	0.793	0.819	0.815
COR-L 105	1.74	1.23	1.06	1.17	0.859	0.661	0.798	0.633	0.715	0.601	0.337	0.342	0.435	1.13	0.848	0.989	0.602	0.546	0.69
NCI-H1755	0.939	0.973	0.921	0.927	0.936	0.973	0.902	0.867	0.839	0.953	0.501	0.553	0.426	0.981	0.91	0.83	0.865	0.849	0.918
